Experimental data as given in US20260265329A1, “POLYPEPTIDE AND DERIVATIVE THEREOF, COMPOSITION, AND USE THEREOF” (HANGZHOU SCIWIND BIOSCIENCES CO., LTD., priority 2023, published 2026).
Each block holds one molecule with its values, some of them ahead of it. Starred links: 1 amine or outer side, 2 acyl side, 3 side chain; linkers in the order of their positions; H or OH if unused. Non-standard residues stand in square brackets, D forms with d. Residues, ends and D or L forms follow the SMILES beside them. Primed or numbered codes have the meaning given here. *: point of attachment. C20 diacid = O=C(O)CCCCCCCCCCCCCCCCCCC(=O)*; C18 diacid = O=C(O)CCCCCCCCCCCCCCCCC(=O)*; C16 diacid = O=C(O)CCCCCCCCCCCCCCC(=O)*; γGlu = O=C(O)[C@H](CCC(=O)[*:2])N[*:1]; Hyp = O=C(O)[C@@H]1C[C@@H](O)CN1; Inp′ = not defined here; Trx′ = not defined here; AEEA = NCCOCCOCC(=O)O

How the values were obtained:
[1] = Heat accelerated stability assay, 40° C., detection on 10 d and 20 d; assay type: physicochemical; conditions: 1 mg/mL, pH about 7.4, 40° C.
Procedure: The derivatives (1 mg/mL) were mixed with sodium dihydrogen phosphate (1.42 mg/mL) and dissolved in ultrapure water. After adjusting pH to about 7.4 with hydrochloric acid/sodium hydroxide, the solution was filtered into a sterilized vial in a clean bench using a 0.22 μm sterile filter. The vial was then capped and placed into the stability test chamber at 40° C. Detections were made on 10d and 20d, and during the assay changes in the characteristics and properties of the polypeptides were observed and recorded. The sample was then centrifuged for 3 min at 10000 rpm at 4° C., and the supernatant was transferred to a liquid phase sample vial for detecting the concentration and purity of the polypeptides using liquid phase chromatography described as below.
Flow rate: 1.0 mL/min; Autosampler temperature: 25° C.; Column temperature: 25° C.; Detection wavelength: 214 nm; Mobile phase A: 110 mM phosphate buffer (pH 5.8): ACN=90:10; Mobile phase B: ACN: IPA: H2O=85:5:10; and Gradient of elution listed in Table 6: […]

human amylin receptors = biological target: T1, human amylin receptors (Homo sapiens, UniProt O60896+P30988); assay: Luciferase assay in stably transfected amylin receptor/CRE-luc CHO cell line; assay type: cell-based; conditions: for Relative activity: EC50 ratio of Cagrilintide to the compound, Cagrilintide 100%; for EC50: amylin receptor/CRE-luc CHO cells, 24 hours incubation, luminescence
T1 construct: host or cells: CHO-K1/Ga15/AMY3 cells, further stably transfected with a CRE-luciferase plasmid
T1 sequence (P30988 25-474): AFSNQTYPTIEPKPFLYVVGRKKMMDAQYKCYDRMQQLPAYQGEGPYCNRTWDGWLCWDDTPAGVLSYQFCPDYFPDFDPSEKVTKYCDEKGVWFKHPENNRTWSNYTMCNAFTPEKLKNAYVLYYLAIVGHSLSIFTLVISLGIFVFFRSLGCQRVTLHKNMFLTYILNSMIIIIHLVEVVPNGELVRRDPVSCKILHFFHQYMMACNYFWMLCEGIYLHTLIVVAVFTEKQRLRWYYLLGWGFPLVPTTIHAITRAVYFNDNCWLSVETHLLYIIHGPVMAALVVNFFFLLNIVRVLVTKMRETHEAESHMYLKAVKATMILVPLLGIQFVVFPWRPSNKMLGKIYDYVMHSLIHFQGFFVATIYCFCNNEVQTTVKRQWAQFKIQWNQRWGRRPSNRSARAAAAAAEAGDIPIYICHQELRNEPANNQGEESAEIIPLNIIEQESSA
T1 sequence (O60896 24-148 partner): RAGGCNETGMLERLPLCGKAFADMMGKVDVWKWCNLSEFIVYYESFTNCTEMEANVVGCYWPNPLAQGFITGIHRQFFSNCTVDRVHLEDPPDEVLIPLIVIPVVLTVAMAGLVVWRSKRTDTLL

[2] = biological target: T2, human amylin receptor on CHO-K1/Ga15/AMY3 cells (amylin receptor/CRE-luc cell line) (human) (UniProt P30988); assay: cell-based or functional assay
T2 sequence (looked up) 1: T1 sequence (P30988 25-474)
T2 sequence (looked up) 2: T1 sequence (O60896 24-148 partner)

B1: M38 (peptide)
peptide: {C16 diacid-γGlu}-ASQLSTAATQRLADFLRHSSNNLKPILPPTNVGSNT[Hyp]-NH2
SMILES: CC[C@H](C)[C@H](NC(=O)[C@@H]1CCCN1C(=O)[C@H](CCCCN)NC(=O)[C@H](CC(C)C)NC(=O)[C@H](CC(N)=O)NC(=O)[C@H](CC(N)=O)NC(=O)[C@H](CO)NC(=O)[C@H](CO)NC(=O)[C@H](Cc1c[nH]cn1)NC(=O)[C@H](CCCNC(=N)N)NC(=O)[C@H](CC(C)C)NC(=O)[C@H](Cc1ccccc1)NC(=O)[C@H](CC(=O)O)NC(=O)[C@H](C)NC(=O)[C@H](CC(C)C)NC(=O)[C@H](CCCNC(=N)N)NC(=O)[C@H](CCC(N)=O)NC(=O)[C@@H](NC(=O)[C@H](C)NC(=O)[C@H](C)NC(=O)[C@@H](NC(=O)[C@H](CO)NC(=O)[C@H](CC(C)C)NC(=O)[C@H](CCC(N)=O)NC(=O)[C@H](CO)NC(=O)[C@H](C)NC(=O)CC[C@H](NC(=O)CCCCCCCCCCCCCCC(=O)O)C(=O)O)[C@@H](C)O)[C@@H](C)O)C(=O)N[C@@H](CC(C)C)C(=O)N1CCC[C@H]1C(=O)N1CCC[C@H]1C(=O)N[C@H](C(=O)N[C@@H](CC(N)=O)C(=O)N[C@H](C(=O)NCC(=O)N[C@@H](CO)C(=O)N[C@@H](CC(N)=O)C(=O)N[C@H](C(=O)N1C[C@H](O)C[C@H]1C(N)=O)[C@@H](C)O)C(C)C)[C@@H](C)O
EC50 (luciferase assay, amylin receptor/CRE-luc CHO cells) [2]: 0.03 nM
Relative activity (the EC50 ratio of Cagrilintide to the compound) [2]: 181%

Molecule: {C20 diacid-Trx′-AEEA-AEEA}-ASQLSTAATQRLADFLRHSSNNLKPILPPTNVGSNT[Hyp]-NH2 (reading uncertain) [M35]
EC50 (luciferase assay, amylin receptor/CRE-luc CHO cells) [2]: 0.043 nM
Relative activity (the EC50 ratio of Cagrilintide to the compound) [2]: 124%

Molecule: {C20 diacid-Inp′-AEEA-AEEA}-ASQLSTAATQRLADFLRHSSNNLKPILPPTNVGSNT[Hyp]-NH2 [M36]
EC50 (luciferase assay, amylin receptor/CRE-luc CHO cells) [2]: 0.059 nM
Relative activity (the EC50 ratio of Cagrilintide to the compound) [2]: 91%

B2: M37 (peptide)
peptide: {C18 diacid-γGlu}-ASQLSTAATQRLADFLRHSSNNLKPILPPTNVGSNT[Hyp]-NH2
SMILES: CC[C@H](C)[C@H](NC(=O)[C@@H]1CCCN1C(=O)[C@H](CCCCN)NC(=O)[C@H](CC(C)C)NC(=O)[C@H](CC(N)=O)NC(=O)[C@H](CC(N)=O)NC(=O)[C@H](CO)NC(=O)[C@H](CO)NC(=O)[C@H](Cc1c[nH]cn1)NC(=O)[C@H](CCCNC(=N)N)NC(=O)[C@H](CC(C)C)NC(=O)[C@H](Cc1ccccc1)NC(=O)[C@H](CC(=O)O)NC(=O)[C@H](C)NC(=O)[C@H](CC(C)C)NC(=O)[C@H](CCCNC(=N)N)NC(=O)[C@H](CCC(N)=O)NC(=O)[C@@H](NC(=O)[C@H](C)NC(=O)[C@H](C)NC(=O)[C@@H](NC(=O)[C@H](CO)NC(=O)[C@H](CC(C)C)NC(=O)[C@H](CCC(N)=O)NC(=O)[C@H](CO)NC(=O)[C@H](C)NC(=O)CC[C@H](NC(=O)CCCCCCCCCCCCCCCCC(=O)O)C(=O)O)[C@@H](C)O)[C@@H](C)O)C(=O)N[C@@H](CC(C)C)C(=O)N1CCC[C@H]1C(=O)N1CCC[C@H]1C(=O)N[C@H](C(=O)N[C@@H](CC(N)=O)C(=O)N[C@H](C(=O)NCC(=O)N[C@@H](CO)C(=O)N[C@@H](CC(N)=O)C(=O)N[C@H](C(=O)N1C[C@H](O)C[C@H]1C(N)=O)[C@@H](C)O)C(C)C)[C@@H](C)O
EC50 (luciferase assay, amylin receptor/CRE-luc CHO cells) [2]: 0.03 nM
Relative activity (the EC50 ratio of Cagrilintide to the compound) [2]: 184%

Continued, values first:

Reduction in purity, 10 d [1]: 8.61%
Relative activity (human amylin receptors): 180%
EC50 (human amylin receptors): 0.05 nM
Molecule: CC[C@H](C)[C@H](NC(=O)[C@@H]1CCCN1C(=O)[C@H](CCCCN)NC(=O)[C@H](CC(C)C)NC(=O)[C@H](CC(N)=O)NC(=O)[C@H](CO)NC(=O)[C@H](CO)NC(=O)[C@H](CO)NC(=O)[C@H](Cc1c[nH]cn1)NC(=O)[C@H](CCCNC(=N)N)NC(=O)[C@H](CC(C)C)NC(=O)[C@H](Cc1ccccc1)NC(=O)[C@H](CC(=O)O)NC(=O)[C@H](C)NC(=O)[C@H](CC(C)C)NC(=O)[C@H](CCCNC(=N)N)NC(=O)[C@H](CCC(N)=O)NC(=O)[C@@H](NC(=O)[C@H](C)NC(=O)[C@H](C)NC(=O)[C@@H](NC(=O)[C@H](CO)NC(=O)[C@H](CC(C)C)NC(=O)[C@H](CCC(N)=O)NC(=O)[C@H](CO)NC(=O)[C@H](C)NC(=O)CC[C@H](NC(=O)CCCCCCCCCCCCCCCCCCC(=O)O)C(=O)O)[C@@H](C)O)[C@@H](C)O)C(=O)N[C@@H](CC(C)C)C(=O)N1CCC[C@H]1C(=O)N1CCC[C@H]1C(=O)N[C@H](C(=O)N[C@@H](CC(N)=O)C(=O)N[C@H](C(=O)NCC(=O)N[C@@H](CO)C(=O)N[C@@H](CC(N)=O)C(=O)N[C@H](C(=O)N1C[C@H](O)C[C@H]1C(N)=O)[C@@H](C)O)C(C)C)[C@@H](C)O [M48] ({C20 diacid-γGlu}-ASQLSTAATQRLADFLRHSSSNLKPILPPTNVGSNT[Hyp]-NH2)

Reduction in purity, 10 d [1]: 11.82%
Reduction in purity, 20 d ([1]; 20 d): 19.98%
Relative activity (human amylin receptors): 200%
EC50 (human amylin receptors): 0.08 nM
Molecule: CC[C@H](C)[C@H](NC(=O)[C@@H]1CCCN1C(=O)[C@H](CCCCN)NC(=O)[C@H](CC(C)C)NC(=O)[C@H](CC(N)=O)NC(=O)[C@H](CCCCN)NC(=O)[C@H](CO)NC(=O)[C@H](CO)NC(=O)[C@H](Cc1c[nH]cn1)NC(=O)[C@H](CCCNC(=N)N)NC(=O)[C@H](CC(C)C)NC(=O)[C@H](Cc1ccccc1)NC(=O)[C@H](CC(=O)O)NC(=O)[C@H](C)NC(=O)[C@H](CC(C)C)NC(=O)[C@H](CCCNC(=N)N)NC(=O)[C@H](CCC(N)=O)NC(=O)[C@@H](NC(=O)[C@H](C)NC(=O)[C@H](C)NC(=O)[C@@H](NC(=O)[C@H](CO)NC(=O)[C@H](CC(C)C)NC(=O)[C@H](CCC(N)=O)NC(=O)[C@H](CO)NC(=O)[C@H](C)NC(=O)CC[C@H](NC(=O)CCCCCCCCCCCCCCCCCCC(=O)O)C(=O)O)[C@@H](C)O)[C@@H](C)O)C(=O)N[C@@H](CC(C)C)C(=O)N1CCC[C@H]1C(=O)N1CCC[C@H]1C(=O)N[C@H](C(=O)N[C@@H](CC(N)=O)C(=O)N[C@H](C(=O)NCC(=O)N[C@@H](CO)C(=O)N[C@@H](CC(N)=O)C(=O)N[C@H](C(=O)N1C[C@H](O)C[C@H]1C(N)=O)[C@@H](C)O)C(C)C)[C@@H](C)O [M53] ({C20 diacid-γGlu}-ASQLSTAATQRLADFLRHSSKNLKPILPPTNVGSNT[Hyp]-NH2)

Reduction in purity, 10 d [1]: 8.5%
Relative activity (human amylin receptors): 163%
EC50 (human amylin receptors): 0.08 nM
Molecule: CC[C@H](C)[C@H](NC(=O)[C@@H]1CCCN1C(=O)[C@H](CCCCN)NC(=O)[C@H](CC(C)C)NC(=O)[C@H](CC(N)=O)NC(=O)[C@@H](NC(=O)[C@H](CO)NC(=O)[C@H](CO)NC(=O)[C@H](Cc1c[nH]cn1)NC(=O)[C@H](CCCNC(=N)N)NC(=O)[C@H](CC(C)C)NC(=O)[C@H](Cc1ccccc1)NC(=O)[C@H](CC(=O)O)NC(=O)[C@H](C)NC(=O)[C@H](CC(C)C)NC(=O)[C@H](CCCNC(=N)N)NC(=O)[C@H](CCC(N)=O)NC(=O)[C@@H](NC(=O)[C@H](C)NC(=O)[C@H](C)NC(=O)[C@@H](NC(=O)[C@H](CO)NC(=O)[C@H](CC(C)C)NC(=O)[C@H](CCC(N)=O)NC(=O)[C@H](CO)NC(=O)[C@H](C)NC(=O)CC[C@H](NC(=O)CCCCCCCCCCCCCCCCCCC(=O)O)C(=O)O)[C@@H](C)O)[C@@H](C)O)[C@@H](C)O)C(=O)N[C@@H](CC(C)C)C(=O)N1CCC[C@H]1C(=O)N1CCC[C@H]1C(=O)N[C@H](C(=O)N[C@@H](CC(N)=O)C(=O)N[C@H](C(=O)NCC(=O)N[C@@H](CO)C(=O)N[C@@H](CC(N)=O)C(=O)N[C@H](C(=O)N1C[C@H](O)C[C@H]1C(N)=O)[C@@H](C)O)C(C)C)[C@@H](C)O [M49] ({C20 diacid-γGlu}-ASQLSTAATQRLADFLRHSSTNLKPILPPTNVGSNT[Hyp]-NH2)
